Legend:
6-OHDA-lesioned rats = experiment: Behavioral tests in the 6-OHDA-lesioned rat model of Parkinson's disease; assay type: in vivo; conditions: 10 mg/kg IP once daily
Description: Behavioral tests in the 6-hydroxydopamine (6-OHDA)-lesioned rat model of Parkinson's disease. Male Wistar rats were trained for both the stepping and initiation time (IT) tests 6 days before treatment with 6-OHDA or NaCl (day −6). 5 days before treatment with 6-OHDA, animals from groups 1 to 3 were given vehicles [NaCl or a mixture of DMSO (10%)/tween 80 (10%)/water (80%)] once daily for 16 days. […] All the treatments were given via the IP route, once daily, Sunday excluded. Surgery was performed on DO under ketamine (50 mg/kg) and xylazine (10 mg/kg). Animals received a unilateral injection of 6-OHDA, 6 μl (sigma Aldrich) in the left substantia nigra pars compacta. During surgery, local analgesia was achieved using subcutaneous injections of lidocaine. At the end of surgery, animals were treated with buprenorphine (0.05 mg/kg, S.C.). […] For the IT test, only one of the two forelimbs was left free to move and the time that is necessary to initiate the movement toward the plane surface was recorded, using 180 sec as break-off point. […] In the stepping test, the rat was held by the experimenter and only one of the two forelimbs was left free to move above a plane surface. The other hand fixed the forelimb not to be monitored with one paw touching the table. The animal was then be moved slowly forward by the experimenter. The number of adjusting steps was counted for the right paw. […] In the cylinder test, animals were placed in a Plexiglas cylinder and, immediately, videotaped for 15 min. During this time, the numbers of contacts made on the cylinder wall with both the ipsilateral, the contralateral, and the two paws simultaneously (double contacts) were recorded and then expressed as a percentage of the total number of contacts.

ob/ob mice = experiment: Glucose (GTT) and insulin (ITT) tolerance tests in ob/ob mice; assay type: in vivo, mouse; conditions: vs vehicle
Description: For the GTT, D-glucose dissolved in 0.9% NaCl was delivered intraperitoneally at a dose of 1 g/kg. The blood glucose level was measured 0, 15, 30, 60, 90, and 120 min after glucose administration. For the ITT, insulin was administered intraperitoneally at a dose of 1 IU/kg. The blood glucose level was measured 0, 15, 30, 60, 90, and 120 min after insulin administration. Glucose levels were measured in blood samples drawn from the tail vein using OneTouch Ultra 2 Meter (LifeScan, Inc.).

liver of ob/ob mice = experiment: Liver expression of gluconeogenesis and lipogenesis genes in ob/ob mice; assay type: in vivo, mouse
Description: The expression of key genes involved in gluconeogenesis and lipogenesis was measured. RNA was isolated from liver samples of the ob/ob mice and mRNA expression of the indicated genes was quantified by Real-time PCR using iTaq Fast SYBR Green Supermix with ROX (Bio-Rad) in a 7500 Real-Time PCR systems (Applied Biosystems) using mouse specific primers. Gene expression is normalized to 18s. RNA was isolated using Trizol (Invitrogen). cDNA was generated using High Capacity cDNA Reverse Transcription kit (Applied Biosystems). Real-time PCR was performed with iTaq Fast SYBR Green Supermix with ROX (Bio-Rad) in 7500 Real-Time PCR systems (Applied Biosystems) using mouse specific primers. Gene expression was normalized to 18s. Isolated liver tissue was homogenized in RIPA buffer containing protease inhibitors and phosphatase inhibitors (Roche). Protein samples were matched for their protein concentrations and 30 micrograms of each sample were applied to SDS-PASE and transferred onto nitrocellulose membrane. Membranes were then incubated with the corresponding phosphor or total primary antibodies specific for the desired proteins followed by incubation with appropriate secondary antibodies conjugated to horseradish peroxidase (Pierce) and signal intensities were visualized by Chemiluminescence (Pierce). Films from at least four independent experiments were scanned and densities of the immunoreactive bands were evaluated using NIH Image software. GAPDH (Santa Cruz Biotechnology) was used as a loading control.

CSM14.1 cells = experiment: ER stress cell survival assay (thapsigargin); assay type: cell-based; conditions: compound 2 μM; about 15 μM thapsigargin; CSM14.1 cells;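 also: survival read as CellTiter-Glo luminescence after overnight incubation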

Structure (SMILES) | initiation time (IT test) (6-OHDA-lesioned rats) | number of adjusting steps (stepping test) (6-OHDA-lesioned rats) | number of contacts (cylinder test) (6-OHDA-lesioned rats) | hyperglycemic response to i.p. glucose challenge (GTT) (ob/ob mice; day 7 post-injection) | insulin-stimulated glucose deposal (ITT) (ob/ob mice; day 10 post-injection) | expression of PPARα and PGC1α (liver of ob/ob mice) | mRNA expression of G6PAse and PEPCK (liver of ob/ob mice) | mRNA expression of lipogenic genes (SCD1, DGAT2, FASn, SREBP1c) (liver of ob/ob mice) | Cell Survival (CSM14.1 cells)
Cc1ccc2cccc(NC(=O)c3ccc(OC(C)C)cc3)c2n1 [Compound A12, 4-Isopropoxy-N-(2-methylquinolin-8-yl)benzamide] | reduced | increased | increased | significantly reduced | strongly enhanced | increased | significantly reduced | significantly reduced | 
Cc1ccc2cccc(NC(=O)c3ccc(N(C)C)cc3)c2n1 [Compound C18, 4-N,N-Dimethylamino-N-(2-methylquinolin-8-yl)benzamide] |  |  |  |  |  |  |  |  | B (B represents a value between 10% and 50%)
